The target of the test is T1, recombinant human SAE enzyme (Homo sapiens, UniProt Q9UBT2).
T1 sequence (Q9UBT2 1-640): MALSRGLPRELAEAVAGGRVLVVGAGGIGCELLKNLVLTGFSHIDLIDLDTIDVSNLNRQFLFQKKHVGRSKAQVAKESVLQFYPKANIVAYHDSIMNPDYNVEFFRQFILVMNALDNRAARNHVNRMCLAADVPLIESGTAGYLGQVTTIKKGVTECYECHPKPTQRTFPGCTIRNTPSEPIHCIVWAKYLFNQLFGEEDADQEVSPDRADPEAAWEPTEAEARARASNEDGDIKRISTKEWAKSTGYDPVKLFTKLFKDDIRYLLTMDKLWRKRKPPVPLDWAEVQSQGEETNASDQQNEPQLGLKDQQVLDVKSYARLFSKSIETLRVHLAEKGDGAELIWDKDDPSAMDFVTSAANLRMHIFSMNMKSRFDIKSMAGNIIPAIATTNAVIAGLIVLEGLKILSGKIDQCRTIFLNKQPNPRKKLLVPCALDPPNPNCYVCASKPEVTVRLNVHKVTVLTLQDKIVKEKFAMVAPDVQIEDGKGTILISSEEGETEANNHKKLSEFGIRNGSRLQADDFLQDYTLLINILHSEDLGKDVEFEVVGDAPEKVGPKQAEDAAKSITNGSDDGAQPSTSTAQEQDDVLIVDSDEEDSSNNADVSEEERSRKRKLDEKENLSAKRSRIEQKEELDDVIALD
T1 sequence (Q9UBE0 1-346 partner): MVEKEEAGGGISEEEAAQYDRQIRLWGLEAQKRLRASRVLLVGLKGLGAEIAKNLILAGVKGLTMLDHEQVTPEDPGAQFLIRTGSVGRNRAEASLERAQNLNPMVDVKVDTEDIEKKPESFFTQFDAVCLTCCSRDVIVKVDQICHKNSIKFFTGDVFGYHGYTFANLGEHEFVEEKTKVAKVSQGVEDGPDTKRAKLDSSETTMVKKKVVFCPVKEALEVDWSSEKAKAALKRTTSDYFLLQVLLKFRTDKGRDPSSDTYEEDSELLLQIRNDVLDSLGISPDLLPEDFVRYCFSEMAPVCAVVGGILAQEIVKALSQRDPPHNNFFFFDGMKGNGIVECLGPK
In words: SAE HTRF Enzyme Assay. As to conditions: for IC50: class symbols A-C; for inhibition at 0.111 µM: compound concentration 0.111 μM, read-out: Percent Inhibition. It is filed as biochemical. An outline of the steps:
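Measured as FRET after a 2 h antibody step: SAE (0.11 nM) thioester transfer of Sumo-Flag to Ubc9-GST, 0.5 μM ATP, 24° C for 105 min, quenched with 20 mM EDTA. Output is IC50 or percent inhibition at a single concentration.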
In general terms: Time-resolved FRET reads energy transfer from a long-lived donor to a nearby acceptor.

Structures are written as SMILES.

Consider `NS(=O)(=O)OC[C@H]1C[C@@H](Nc2ncncc2C(=O)c2ccn(Cc3ccc(F)c(F)c3)n2)C[C@@H]1O` [Compound I-212, {(1R,2S,4R)-4-[(5-{[1-(3,4-difluorobenzyl)-1H-pyrazol-3-yl]carbonyl}pyrimidin-4-yl)amino]-2-hydroxycyclopentyl}methyl sulfamate], for which the 50% inhibitory concentration (IC50) (commonly the midpoint of a concentration-inhibition curve) was less than 10 nM and the inhibition (usually the change of the read-out against control, counted positive when it falls) at 0.111 µM is 95%.
In the same order, the values of `NS(=O)(=O)OC[C@H]1C[C@@H](Nc2ncncc2C(=O)c2ccn(Cc3cc(F)cc(C(F)(F)F)c3)c2)C[C@@H]1O` [Compound I-213, [(1R,2S,4R)-4-{[5-({1-[3-fluoro-5-(trifluoromethyl)benzyl]-1H-pyrrol-3-yl}carbonyl)pyrimidin-4-yl]amino}-2-hydroxycyclopentyl]methyl sulfamate] are less than 10 nM and 97%.
As for `NS(=O)(=O)OC[C@H]1C[C@@H](Nc2ncncc2C(=O)c2ccn(Cc3cn4ccccc4n3)n2)C[C@@H]1O` [Compound I-214, {(1R,2S,4R)-2-hydroxy-4-[(5-{[1-(imidazo[1,2-a]pyridin-2-ylmethyl)-1H-pyrazol-3-yl]carbonyl}pyrimidin-4-yl)amino]cyclopentyl}methyl sulfamate], the IC50 is less than 10 nM and the inhibition at 0.111 µM is 98%.
As to `NS(=O)(=O)OC[C@H]1C[C@@H](Nc2ncncc2C(=O)c2ccn(Cc3cccc(Cl)c3)n2)C[C@@H]1O` [Compound I-215, {(1R,2S,4R)-4-[(5-{[1-(3-chlorobenzyl)-1H-pyrazol-3-yl]carbonyl}pyrimidin-4-yl)amino]-2-hydroxycyclopentyl}methyl sulfamate], the IC50 is less than 10 nM and the inhibition at 0.111 µM was found to be 99%.
With `Cn1cccc(Cn2ccc(C(=O)c3cncnc3N[C@@H]3C[C@H](COS(N)(=O)=O)[C@@H](O)[C@@H]3F)c2)c1=O` [Compound I-216, [(1R,2R,3R,4R)-3-fluoro-2-hydroxy-4-{[5-({1-[(1-methyl-2-oxo-1,2-dihydropyridin-3-yl)methyl]-1H-pyrrol-3-yl}carbonyl)pyrimidin-4-yl]amino}cyclopentyl]methyl sulfamate], the IC50 is less than 10 nM and the inhibition at 0.111 µM was determined as 97%.
`NS(=O)(=O)OC[C@H]1C[C@@H](Nc2ncncc2C(=O)c2ccn(Cc3ccccc3)c2)[C@H](O)[C@@H]1O` [Compound I-217, [(1R,2R,3S,4R)-4-({5-[(1-Benzyl-1H-pyrrol-3-yl)carbonyl]pyrimidin-4-yl}amino)-2,3-dihydroxycyclopentyl]methyl sulfamate]: the IC50 was less than 10 nM and the inhibition at 0.111 µM came to 98%.
With `NS(=O)(=O)OC[C@H]1C[C@@H](Nc2ncncc2C(=O)c2ccn(Cc3ccc(Cl)c(OC(F)(F)F)c3)n2)[C@@H](F)[C@@H]1O` [Compound I-218, [(1R,2R,3R,4R)-4-{[5-({1-[4-chloro-3-(trifluoromethoxy)benzyl]-1H-pyrazol-3-yl}carbonyl)pyrimidin-4-yl]amino}-3-fluoro-2-hydroxycyclopentyl]methyl sulfamate], the IC50 was 10 to 100 nM and the inhibition at 0.111 µM stood at 89%.
As to `NS(=O)(=O)OC[C@H]1C[C@@H](Nc2ncncc2C(=O)c2ccn(Cc3cccc(F)c3F)n2)C[C@@H]1O` [Compound I-219, {(1R,2S,4R)-4-[(5-{[1-(2,3-difluorobenzyl)-1H-pyrazol-3-yl]carbonyl}pyrimidin-4-yl)amino]-2-hydroxycyclopentyl}methyl sulfamate], the IC50 is less than 10 nM and the inhibition at 0.111 µM came out at 99%.
In the same order, the values of `CC(C)n1ccc(C(=O)c2cncnc2N[C@@H]2C[C@H](COS(N)(=O)=O)[C@@H](O)[C@H]2O)n1` [Compound I-220, [(1R,2R,3S,4R)-2,3-dihydroxy-4-({5-[(1-isopropyl-1H-pyrazol-3-yl)carbonyl]pyrimidin-4-yl}amino)cyclopentyl]methyl sulfamate] are 10 to 100 nM and 57%.
In the same order, the values of `NS(=O)(=O)OC[C@H]1C[C@@H](Nc2ncncc2C(=O)c2ccn(Cc3cccc(I)c3)n2)[C@H](O)[C@@H]1O` [Compound I-221, {(1R,2R,3S,4R)-2,3-dihydroxy-4-[(5-{[1-(3-iodobenzyl)-1H-pyrazol-3-yl]carbonyl}pyrimidin-4-yl)amino]cyclopentyl}methyl sulfamate] are less than 10 nM and 100%.
Take `NS(=O)(=O)OC[C@H]1C[C@@H](Nc2ncncc2C(=O)c2ccn(CC3CCOCC3)c2)[C@@H](F)[C@@H]1O` [Compound I-222, {(1R,2R,3R,4R)-3-fluoro-2-hydroxy-4-[(5-{[1-(tetrahydro-2H-pyran-4-ylmethyl)-1H-pyrrol-3-yl]carbonyl}pyrimidin-4-yl)amino]cyclopentyl}methyl sulfamate]: the IC50 lay in the range of 10 to 100 nM and the inhibition at 0.111 µM came to 63%.
`NS(=O)(=O)OC[C@H]1C[C@@H](Nc2ccncc2C(=O)c2ccn(Cc3cccc(Br)c3)n2)C[C@@H]1O` [Compound I-223, {(1R,2S,4R)-4-[(3-{[1-(3-bromobenzyl)-1H-pyrazol-3-yl]carbonyl}pyridin-4-yl)amino]-2-hydroxycyclopentyl}methyl sulfamate]: the IC50 is less than 10 nM and the inhibition at 0.111 µM amounted to 99%.
`NS(=O)(=O)OC[C@H]1C[C@@H](Nc2ncncc2C(=O)c2ccn(Cc3cccc(OC(F)F)c3)c2)[C@@H](F)[C@@H]1O` [Compound I-224, [(1R,2R,3R,4R)-4-{[5-({1-[3-(difluoromethoxy)benzyl]-1H-pyrrol-3-yl}carbonyl)pyrimidin-4-yl]amino}-3-fluoro-2-hydroxycyclopentyl]methyl sulfamate]: the IC50 was less than 10 nM and the inhibition at 0.111 µM stood at 99%.
As to `NS(=O)(=O)OC[C@H]1C[C@@H](Nc2ncncc2C(=O)c2ccn(Cc3c(F)ccc(F)c3F)n2)[C@H](O)[C@@H]1O` [Compound I-225, {(1R,2R,3S,4R)-2,3-dihydroxy-4-[(5-{[1-(2,3,6-trifluorobenzyl)-1H-pyrazol-3-yl]carbonyl}pyrimidin-4-yl)amino]cyclopentyl}methyl sulfamate], the 50% inhibitory concentration (IC50) was less than 10 nM and the inhibition at 0.111 µM was more than 99%.
In the case of `NS(=O)(=O)OC[C@H]1C[C@@H](Nc2ncncc2C(=O)c2ccn(Cc3ccccc3C(F)(F)F)n2)C[C@@H]1O` [Compound I-226, [(1R,2S,4R)-2-hydroxy-4-{[5-({1-[2-(trifluoromethyl)benzyl]-1H-pyrazol-3-yl}carbonyl)pyrimidin-4-yl]amino}cyclopentyl]methyl sulfamate], the concentration for half-maximal inhibition (IC50) lay in the range of 10 to 100 nM and the inhibition at 0.111 µM turned out to be 85%.
In the same order, the values of `NS(=O)(=O)OC[C@H]1C[C@@H](Nc2ncncc2C(=O)c2ccn(Cc3ccccc3)n2)[C@H](F)[C@@H]1O` [Compound I-227, [(1R,2R,3S,4R)-4-({5-[(1-benzyl-1H-pyrazol-3-yl)carbonyl]pyrimidin-4-yl}amino)-3-fluoro-2-hydroxycyclopentyl]methyl sulfamate] are less than 10 nM and 97%.
In the same order, the values of `CC#CCn1ccc(C(=O)c2cncnc2N[C@@H]2C[C@H](COS(N)(=O)=O)[C@@H](O)C2)n1` [Compound I-228, {(1R,2S,4R)-4-[(5-{[1-(but-2-yn-1-yl)-1H-pyrazol-3-yl]carbonyl}pyrimidin-4-yl)amino]-2-hydroxycyclopentyl}methyl sulfamate] are 10 to 100 nM and 72%.
`NS(=O)(=O)OC[C@H]1C[C@@H](Nc2ncncc2C(=O)c2ccn(Cc3cccc(Oc4ccc(F)cc4)c3)n2)[C@H](O)[C@@H]1O` [Compound I-229, [(1R,2R,3S,4R)-4-{[5-({1-[3-(4-fluorophenoxy)benzyl]-1H-pyrazol-3-yl}carbonyl)pyrimidin-4-yl]amino}-2,3-dihydroxycyclopentyl]methyl sulfamate]: the concentration for half-maximal inhibition (IC50) is 10 to 100 nM and the inhibition at 0.111 µM stood at 88%.
Turning to `NS(=O)(=O)OC[C@H]1C[C@@H](Nc2ncncc2C(=O)c2ccn(Cc3cc(C(F)(F)F)ccc3F)n2)[C@H](O)[C@@H]1O` [Compound I-230, [(1R,2R,3S,4R)-4-{[5-({1-[2-fluoro-5-(trifluoromethyl)benzyl]-1H-pyrazol-3-yl}carbonyl)pyrimidin-4-yl]amino}-2,3-dihydroxycyclopentyl]methyl sulfamate], the IC50 is less than 10 nM and the inhibition at 0.111 µM was found to be 98%.

These data come from patent US9695154B2, “Heteroaryl inhibitors of sumo activating enzyme” (MILLENNIUM PHARMACEUTICALS, INC., priority 2013, dated 2017).
